Several values for one entry are separate records, joined by “and”; a condition that tells them apart may be missing. Equal values may be shown once. Where a name gives a salt, the structure may show the parent alone.

Data set [1] can be described thus: Dissolution studies of Lasofoxifene in organic solvents and surfactants. The class given is physicochemical. The conditions noted are these: Lasofoxifene 1 mg/ml in the labelled solvent/surfactant; visual examination.
Assay in data set [2]: as above
The class given is physicochemical. The note with it: visual examination; for Dissolution of Lasofoxifene in various organic solvents and surfactants, 2 mg/ml: Lasofoxifene 2 mg/ml in the labelled solvent/surfactant; for Dissolution of Lasofoxifene in various organic solvents and surfactants, 3 mg/ml: Lasofoxifene 3 mg/ml in the labelled solvent/surfactant. How it is done:
The solubility of Lasofoxifene was investigated by screening various organic solvents and surfactants in increasing concentrations. The term “formulation” may refer to a pharmaceutical composition comprising […] pharmaceutically acceptable excipients.
First, 1 mg of Lasofoxifene was weighed into Eppendorf vessels and 500 μl of organic solvents and surfactants as listed in Table 20 were added. In cases of insufficient dissolution of the API, samples were treated with ultrasound for 30 min and, if necessary, heated to 50° C. while shaking (300 rpm). Afterwards, samples were examined visually regarding drug dissolution. In case of entire dissolution, the experiment was repeated with increasing drug concentrations until maximum dissolution was achieved. In addition, further organic solvents and surfactants were tested.

In data set [3] the test system is Uterine. The experiment in a line: Ovariectomized rat dosing frequency study: mucification, Uterine (0-4 scale). The class given is in vivo. The conditions noted are these: individual animals.
The test system of data set [4] is vaginal epithelium. The experiment in a line: Ovariectomized rat dosing frequency study: thickness of the vaginal epithelium (H & E histomorphometry). The format is in vivo. Set-up: unit not given here. The note with it: individual animals. From the text:
(§1) A total of 96 young, about 6-8 weeks old, female Sprague Dawley rats were used in this pilot study. The rats were randomized by body weight into six (6) per group and sixteen (16) groups. Ninety (N=90) of the animals were ovariectomized (OVX), and six (N=6) of the animals have a sham OVX surgery. One group of six (6) animals were terminated along with the sham-operated group at Day-14 post-OVX surgery. Three groups of eighteen (18) animals were respectively terminated along with the vehicle group at Day-14, Day-17 or Day-21 post-OVX surgery. The dosing regimens, starting on Day 14 post OVX, by inserting a capsule containing the desired Lasofoxifene formulations (e.g., Test Articles F-1-L, F-1-H, F-2-L, F-2-H) into vaginal tract under brief general anesthesia.
(§2) Rats were assigned to treatment groups by randomization in BioBook system (IDBS) based on the body weights. Grouping according to the below table 1. Each rat was dosed with ready to use solution, […] into vaginal tract with a syringe.
(§3) Annotation: Groups 1 (N=6): Day-0 vehicle; dose once at 100 μL on Day-0 at 14-day post OVX, and terminate at Day-14 post OVX. Groups 2 (N=6): Day-3 vehicle; dose once at 100 μL on Day-0 at 14-day post OVX, and terminate at Day-17 post OVX. Groups 3 (N=6): Day-7 vehicle; dose once at 100 μL on Day-0 at 14-day post OVX, and terminate at Day-21 post OVX. Groups 4 (N=6): Day-0 sham: terminate at Day-14 post sham-operation. Groups 5 (N=6): F-1-L; dose once at 0.3 μg/kg (100 μL) on Day-0 at 14-day post OVX, and terminated at Day-3 after dosing. Groups 6 (N=6): F-1-H; dose once at 3.0 μg/kg (100 μL) on Day-0 at 14-day post OVX, and terminated at Day-3 after dosing. Groups 7 (N=6): F-2-L; dose once at 0.3 μg/kg (100 μL) on Day-0 at 14-day post OVX, and terminated at Day-3 after dosing. Groups 8 (N=6): F-2-H; dose once at 3.0 μg/kg (100 μL) on Day-0 at 14-day post OVX, and terminated at Day-3 after dosing. Groups 9 (N=6): F-1-L; dose once at 0.3 μg/kg (100 μL) on Day-0 at 14-day post OVX, and terminated at Day-7 after dosing. Groups 10 (N=6): F-1-H; dose once at 3.0 μg/kg (100 μL) on Day-0 at 14-day post OVX, and terminated at Day-7 after dosing. Groups 11 (N=6): F-2-L; dose once at 0.3 μg/kg (100 μL) on Day-0 at 14-day post OVX, and terminated at Day-7 after dosing. Groups 12 (N=6): F-2-H; dose once at 3.0 μg/kg (100 μL) on Day-0 at 14-day post OVX, and terminated at Day-7 after dosing. Groups 13 (N=6): F-1-L; dose twice at respectively 0.3 μg/kg (100 μL) on Day-0 and Day-4 at 14-day and 18-day post OVX, and terminated at Day-7 after dosing. Groups 14 (N=6): F-1-H; dose twice at respectively 3.0 μg/kg (100 μL) on Day-0 and Day-4 at 14-day and 18-day post OVX, and terminated at Day-7 after dosing. Groups 15 (N=6): F-2-L; dose twice at respectively 0.3 μg/kg (100 μL) on Day-0 and Day-4 at 14-day and 18-day post OVX, and terminated at Day-7 after dosing. Groups 16 (N=6): F-2-H; dose twice at respectively 3.0 μg/kg (100 μL) on Day-0 and Day-4 at 14-day and 18-day post OVX, and terminated at Day-7 after dosing. Body Weight
(§4) All animals were humanely sacrificed by CO2 and the vaginal and uterine wet-weight were collected from each, and about 0.5 mL blood were collected for analysis of serum cholesterol level. Each uterus and vagina was weighed separately and was placed in 10% NBF for at least 48 hours before being sent to Histology Laboratory for tissue processing. The paraffin blocks of these tissues were sectioned, about 4-8 μm in thickness, and one section were stained with H & E for general microscopic evaluation, and one section were stained with PAS for assessment of mucification of the epithelium.
The H & E stained sections were used to measure the height of the vaginal epithelium at minimum of ten (10) sites per slide. Photomicrographs of the slides were included in the appendix or burned on a DVD disc to accompany the final report. […]

In data set [5] the test system is Uterine. The experiment in a line: Ovariectomized rat dosing frequency study: epithelium thickness, Uterine. The class given is in vivo. Set-up: unit not given here. The note with it: individual animals.
Data set [6] relates to vaginal epithelium. The experiment in a line: Ovariectomized rat dosing frequency study: mucification of vaginal epithelium (PAS staining, 0-4 scale). The format is in vivo. The conditions noted are these: individual animals.
Description: as §1, §2, §3, §4
The PAS stained sections were used to evaluate the amount of mucification by visual approximation on a 0-4 scale, with the 4 stands for the highest amount.
Data were analyzed using GraphPad Prism software (GraphPad Software, Inc., La Jolla, Calif., USA) and are expressed as the mean±SD. […]

Turning to `C[S+](C)[O-]` [DMSO, dimethyl sulfoxide], the “Dissolution of Lasofoxifene in various organic solvents and surfactants, 1 mg/ml” value (“Dissolution of Lasofoxifene … 1 mg/ml” below) in data set [1] is “dissolved”. Besides, in data set [2], the “Dissolution of Lasofoxifene in various organic solvents and surfactants, 2 mg/ml” value (shortened to “Dissolution of Lasofoxifene … 2 mg/ml”) is given as “dissolved”; the “Dissolution of Lasofoxifene in various organic solvents and surfactants, 3 mg/ml” value (“Dissolution of Lasofoxifene … 3 mg/ml” for short) is on record as “dissolved”. The “Dissolution of Lasofoxifene in various organic solvents and surfactants, 6 mg/ml” value in data set [2] (Lasofoxifene 6 mg/ml in the labelled solvent/surfactant) is “dissolved”.
For the compound `CCCCCCCC/C=C\CCCCCCCC(=O)OCC` [Ethyloleate], the “Dissolution of Lasofoxifene … 1 mg/ml” value in data set [1] was “not dissolved”.
With `OCC(O)CO` [Glycerol 85%, Glycerol], the “Dissolution of Lasofoxifene … 1 mg/ml” value in data set [1] was “dissolved”. For the same compound, in data set [2], the “Dissolution of Lasofoxifene … 2 mg/ml” value is recorded as “partially”; the “Dissolution of Lasofoxifene … 3 mg/ml” value is given as “not dissolved”.
As for `OCC(O)CO` [Glycerol 99%, Glycerol], the “Dissolution of Lasofoxifene … 1 mg/ml” value in data set [1] is “dissolved*”. In addition, in data set [2], the “Dissolution of Lasofoxifene … 2 mg/ml” value is “partially”; the “Dissolution of Lasofoxifene … 3 mg/ml” value was “not dissolved”.
Consider `CO[C@H]1CO[C@H]2[C@@H]1OC[C@H]2OC` [Isosorbide dimethyl ether (DMI), Isosorbide dimethyl ether], for which the “Dissolution of Lasofoxifene … 1 mg/ml” value in data set [1] is “dissolved*”. In data set [2], the “Dissolution of Lasofoxifene … 2 mg/ml” value was “partially”; the “Dissolution of Lasofoxifene … 3 mg/ml” value was “not dissolved”.
As for `Oc1ccc2c(c1)CC[C@H](c1ccccc1)[C@@H]2c1ccc(OCCN2CCCC2)cc1` [Lasofoxifene], the “Mucification, Uterine” value in the data set with Uterine [3] (group G3), in the data set on Uterine [3] (group G5), in the data set with Uterine [3] (group G6), with Uterine [3] (group G7), with Uterine [3] (group G8) and with Uterine [3] (group G9) was 0 each time. For the same compound, the “Mucification, Uterine” value in the data set with Uterine [3] (group G10), in the data set on Uterine [3] (group G11), in the data set with Uterine [3] (group G12), with Uterine [3] (group G13), in the data set on Uterine [3] (group G14) and in the data set on Uterine [3] (group G15) was 0 throughout. In the data set on Uterine [3] (group G16), the “Mucification, Uterine” value was 0. The “Thickness of the vaginal epithelium, Vagina” value (“Thickness … Vagina” below) in the data set with vaginal epithelium [4] (group G3) is 23 (2×) and 22 and 21 and 15 and 18; with vaginal epithelium [4] (group G5), 26 and 30 and 32 (2×) and 27 and 16; with vaginal epithelium [4] (group G6), 29 (2×) and 24 and 41 and 27 and 22; in the data set with vaginal epithelium [4] (group G7), 27 and 18 and 21 and 20 (2×) and 17; in the data set with vaginal epithelium [4] (group G8) it was 32 (2×) and 24 and 28 and 14 and 26; in the data set with vaginal epithelium [4] (group G9) it was 21 and 15 (2×) and 25 and 17 and 18. The “Thickness … Vagina” value in the data set with vaginal epithelium [4] (group G10) was 27 and 19 and 17 (2×) and 14 and 22; in the data set on vaginal epithelium [4] (group G11) it was 17 (2×) and 20 and 15 and 25 and 19; in the data set with vaginal epithelium [4] (group G12) it was 16 and 21 and 17 and 18 and 20 and 19; with vaginal epithelium [4] (group G13) it was 20 (3×) and 18 and 23 and 19; in the data set on vaginal epithelium [4] (group G14) it was 15 and 23 and 13 and 16 and 18 and 25; with vaginal epithelium [4] (group G15) it was 21 and 22 and 23 (3×) and 25. The “Thickness … Vagina” value with vaginal epithelium [4] (group G16) was 22 and 28 and 20 and 19 (2×) and 16. Moreover, the “Thickness, Uterine” value with Uterine [5] (group G3) was 6 and 7 (3×) and 8 (2×); in the data set on Uterine [5] (group G5), 9 (4×) and 8 (2×); in the data set on Uterine [5] (group G6), 8 (3×) and 9 and 6 (2×); in the data set with Uterine [5] (group G7), 8 (3×) and 7 (2×) and 9; with Uterine [5] (group G8), 6 and 8 (2×) and 10 (2×) and 7; in the data set on Uterine [5] (group G9), 7 (2×) and 9 (2×) and 6 (2×). Further, the “Thickness, Uterine” value in the data set on Uterine [5] (group G10) is 9 (3×) and 8 (2×) and 11; with Uterine [5] (group G11), 5 and 7 (4×) and 9; with Uterine [5] (group G12) it was 9 and 7 (3×) and 6 and 8; in the data set on Uterine [5] (group G13) it was 6 (2×) and 7 and 8 (2×) and 9; in the data set on Uterine [5] (group G14), 8 (3×) and 6 and 7 and 9; with Uterine [5] (group G15), 9 and 8 (5×). Further, the “Thickness, Uterine” value in the data set with Uterine [5] (group G16) is 6 (2×) and 7 (3×) and 8. For the same compound, the “Mucification of vaginal epithelium, Vagina” value (“Mucification … Vagina” below) with vaginal epithelium [6] (group G3) was 2 (4×) and 3 (2×); in the data set on vaginal epithelium [6] (group G5), 3 and 1 (3×) and 2 (2×); with vaginal epithelium [6] (group G6) it was 2 (2×) and 1 (4×); in the data set with vaginal epithelium [6] (group G7) it was 1 (2×) and 2 (4×); in the data set with vaginal epithelium [6] (group G8), 2 (2×) and 1 (3×) and 3; in the data set on vaginal epithelium [6] (group G9), 3 (3×) and 1 and 2 (2×). Moreover, the “Mucification … Vagina” value in the data set on vaginal epithelium [6] (group G10) was 3 (3×) and 2 (3×); in the data set with vaginal epithelium [6] (group G11), 3 (2×) and 4 and 1 and 2 (2×); in the data set on vaginal epithelium [6] (group G12), 3 (4×) and 2 and 4; in the data set with vaginal epithelium [6] (group G13), 4 (4×) and 3 (2×); in the data set on vaginal epithelium [6] (group G14) it was 4 (3×) and 3 (3×); in the data set with vaginal epithelium [6] (group G15), 2 (2×) and 3 (4×). Also, the “Mucification … Vagina” value with vaginal epithelium [6] (group G16) was 4 and 3 (4×) and 2.
As to `CC(=O)OCC(COC(C)=O)OC(C)=O` [Triacetin (TAC), Triacetin], in data set [2], the “Dissolution of Lasofoxifene … 2 mg/ml” value is “not dissolved”.
`CCCCOC(=O)CC(CC(=O)OCCCC)(OC(C)=O)C(=O)OCCCC` [Tributyl acetyl citrate (TBAC), Tributyl acetyl citrate]: the “Dissolution of Lasofoxifene … 1 mg/ml” value in data set [1] was “not dissolved”.
Still for that read-out and setting: the value for `CCOC(=O)CC(CC(=O)OCC)(OC(C)=O)C(=O)OCC` [Triethyl acetyl citrate (TEAC), Triethyl acetyl citrate] was “not dissolved”; that for `CCOC(=O)CC(O)(CC(=O)OCC)C(=O)OCC` [Triethyl citrate (TEC), Triethyl citrate] was “not dissolved”.
